Test system: 996289-038-R-J1-PDC spheroid viability
Assay: Anticancer human tumor 996289-038-R-J1-PDC patient-derived colon adenocarcinoma cell line growth inhibition [PI3K]
Settings: spheroids with HUVEC and MSC; for IC50: curve of first compound; for viability, T/C: stronger effect = lower value
How it was run: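 Tumor cells were combined with HUVEC and MSCs into spheroids, then dosed with PI3K-inhibitor combinations over half-log ranges capped near clinical Cmax or 10 microM.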

[1] = second compound 0.00316 µM, first compound 0.0316 µM
[2] = second compound 0.00316 µM, first compound 0.1 µM
[3] = second compound 0.00316 µM, first compound 0.316 µM
[4] = second compound 0.00316 µM, first compound 1 µM
[5] = second compound 0.01 µM, first compound 0.0316 µM
[6] = second compound 0.01 µM, first compound 0.1 µM
[7] = second compound 0.01 µM, first compound 0.316 µM
[8] = second compound 0.01 µM, first compound 1 µM
[9] = second compound 0.0316 µM, first compound 0.0316 µM
[10] = second compound 0.0316 µM, first compound 0.1 µM
[11] = second compound 0.0316 µM, first compound 0.316 µM
[12] = second compound 0.0316 µM, first compound 1 µM
[13] = second compound 0.1 µM, first compound 0.0316 µM
[14] = second compound 0.1 µM, first compound 0.1 µM
[15] = second compound 0.1 µM, first compound 0.316 µM
[16] = second compound 0.1 µM, first compound 1 µM
[17] = second compound 0.316 µM, first compound 0.0316 µM
[18] = second compound 0.316 µM, first compound 0.1 µM
[19] = second compound 0.316 µM, first compound 0.316 µM
[20] = second compound 0.316 µM, first compound 1 µM
[21] = second compound 1 µM, first compound 0.0316 µM
[22] = second compound 1 µM, first compound 0.1 µM
[23] = second compound 1 µM, first compound 0.316 µM
[24] = second compound 1 µM, first compound 1 µM
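Also: spheroids exposed to compounds for seven days before viability read.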
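For viability, T/C in this document: luminescence used as a proxy for viable cell amount; percent viability relative to DMSO vehicle control as 100%.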

CCN1CCN(Cc2ccc(Nc3ncc(F)c(-c4cc(F)c5nc(C)n(C(C)C)c5c4)n3)nc2)CC1 + CC(Nc1ccc2c(c1)OCCn1cc(N3C(=O)OCC3C(F)F)nc1-2)C(N)=O
IC50 (second compound 0.00316 µM): > 1 µM | IC50 (second compound 0.01 µM): > 1 µM | IC50 (second compound 0.0316 µM): > 1 µM | IC50 (second compound 0.1 µM): > 1 µM | IC50 (second compound 0.316 µM): 0.772 µM | IC50 (second compound 1 µM): 0.0538 µM | viability, T/C (second compound 0.00316 µM, first compound 0.00316 µM): 97.1% | viability, T/C (second compound 0.00316 µM, first compound 0.01 µM): 93.1% | viability, T/C [1]: 93.2% | viability, T/C [2]: 84.8% | viability, T/C [3]: 76.9% | viability, T/C [4]: 78.3% | viability, T/C (second compound 0.01 µM, first compound 0.00316 µM): 98.5% | viability, T/C (second compound 0.01 µM, first compound 0.01 µM): 98.9% | viability, T/C [5]: 83.2% | viability, T/C [6]: 75.8% | viability, T/C [7]: 82.9% | viability, T/C [8]: 82.8% | viability, T/C (second compound 0.0316 µM, first compound 0.00316 µM): 94.9% | viability, T/C (second compound 0.0316 µM, first compound 0.01 µM): 83.2% | viability, T/C [9]: 78.9% | viability, T/C [10]: 69.8% | viability, T/C [11]: 79.8% | viability, T/C [12]: 67.5% | viability, T/C (second compound 0.1 µM, first compound 0.00316 µM): 78.6% | viability, T/C (second compound 0.1 µM, first compound 0.01 µM): 75.1% | viability, T/C [13]: 74.7% | viability, T/C [14]: 66.1% | viability, T/C [15]: 61.3% | viability, T/C [16]: 65.8% | viability, T/C (second compound 0.316 µM, first compound 0.00316 µM): 71.3% | viability, T/C (second compound 0.316 µM, first compound 0.01 µM): 73.9% | viability, T/C [17]: 64.3% | viability, T/C [18]: 54.7% | viability, T/C [19]: 57.3% | viability, T/C [20]: 48.4% | viability, T/C (second compound 1 µM, first compound 0.00316 µM): 53.7% | viability, T/C (second compound 1 µM, first compound 0.01 µM): 53.2% | viability, T/C [21]: 52.6% | viability, T/C [22]: 47.4% | viability, T/C [23]: 46.4% | viability, T/C [24]: 45%

C=CC(=O)N1CCN(c2nc(=O)n(-c3c(C)ccnc3C(C)C)c3nc(-c4c(O)cccc4F)c(F)cc23)C(C)C1 (centres undefined) + COc1c(OCCCN2CCOCC2)ccc2c3n(c(=NC(=O)c4cnc(N)nc4)nc12)CCN3
IC50 (second compound 0.00316 µM): > 10 µM | IC50 (second compound 0.01 µM): > 10 µM | IC50 (second compound 0.0316 µM): > 10 µM | IC50 (second compound 0.1 µM): > 10 µM | IC50 (second compound 0.316 µM): < 0.0316 µM | IC50 (second compound 1 µM): < 0.0316 µM | viability, T/C [1]: 99.8% | viability, T/C [2]: 99.1% | viability, T/C [3]: 118% | viability, T/C [4]: 129% | viability, T/C (second compound 0.00316 µM, first compound 3.16 µM): 137% | viability, T/C (second compound 0.00316 µM, first compound 10 µM): 104% | viability, T/C [5]: 99.8% | viability, T/C [6]: 92.7% | viability, T/C [7]: 108% | viability, T/C [8]: 99.9% | viability, T/C (second compound 0.01 µM, first compound 3.16 µM): 106% | viability, T/C (second compound 0.01 µM, first compound 10 µM): 109% | viability, T/C [9]: 82.6% | viability, T/C [10]: 88.3% | viability, T/C [11]: 85.4% | viability, T/C [12]: 81.5% | viability, T/C (second compound 0.0316 µM, first compound 3.16 µM): 90.7% | viability, T/C (second compound 0.0316 µM, first compound 10 µM): 85.6% | viability, T/C [13]: 60.7% | viability, T/C [14]: 52.7% | viability, T/C [15]: 62.5% | viability, T/C [16]: 74.3% | viability, T/C (second compound 0.1 µM, first compound 3.16 µM): 70.8% | viability, T/C (second compound 0.1 µM, first compound 10 µM): 71.9% | viability, T/C [17]: 37.7% | viability, T/C [18]: 42.5% | viability, T/C [19]: 38.2% | viability, T/C [20]: 42% | viability, T/C (second compound 0.316 µM, first compound 3.16 µM): 48.2% | viability, T/C (second compound 0.316 µM, first compound 10 µM): 40.5% | viability, T/C [21]: 21% | viability, T/C [22]: 22.6% | viability, T/C [23]: 20.4% | viability, T/C [24]: 22% | viability, T/C (second compound 1 µM, first compound 3.16 µM): 23.3% | viability, T/C (second compound 1 µM, first compound 10 µM): 20.7%

— PubChem BioAssay AID1963965 (Molecular Pharmacology Branch, DTP, NCI, 2024)
